Test results as given in patent publication US20240041050A1, “CELL PENETRATING PEPTIDE MEDIATED RNA TRANSDUCTION WITHIN INSECT CELLS” (PIONEER HI-BRED INTERNATIONAL, INC., priority 2020, published 2024).
Peptide text beside a SMILES is read from it.

Test system: dvssj1 frag 1 dsRNA
Assay: CPP·dsRNA complex formation by gel shift assay
Type: binding
Settings: 770 nM unlabeled dsRNA (2100 ng); molar ratio 1:4 through 8:1; 1.2% TE agarose gel
Method: FIG. 2 Formation of CPP·dsRNA complex as assessed by gel shift assay. FIG. 2A Reactions were assembled as described in Example 3, with increasing amounts of MPG-YFP added to […] Cy3-dsRNA (595.8 ng), from a molar ratio (CPP:dsRNA) of 1:4 through 8:1. After incubation, 20 μL reaction volumes were each mixed with 2 μL 10% molecular biology grade glycerol and electrophoresed on a 1.2% Tris-EDTA (TE) agarose gel and stained with Invitrogen™ SYBR Safe DNA Gel Stain (Thermo Fisher Scientific, Waltham, MA). Effects on mobility of the Cy3-dsRNA band are observed upon increasing molar ratios of MPG-YFP. […] The large relative size of MPG-YFP causes a large band shift. FIG. 2B Reactions were assembled as described in Example 3, with increasing amounts of CyLoP added to 770 nM dsRNA (2100 ng), from a molar ratio of 1:4 through 8:1. […] FIG. 2C Results of MPG-YFP binding to Cy3-dsRNA (described in 2A) assessed by DLS. […] Readings were collected using default settings for protein molecules, at 25° C. with a 15 second equilibration stage, using a Zetasizer Ultra and accompanying software (Malvern Panalytical, Malvern, United Kingdom). The dispersant was adjusted to account for the specific viscosity and refractive index of the complex formation solution prior to calculation of detected sizes. […]

SMILES: N=C(N)NCCC[C@H](NC(=O)[C@H](Cc1c[nH]c2ccccc12)NC(=O)[C@H](CCCNC(=N)N)NC(=O)[C@@H](N)CS)C(=O)N[C@@H](Cc1c[nH]c2ccccc12)C(=O)N[C@@H](CCCCN)C(=O)N[C@@H](CS)C(=O)N[C@@H](CS)C(=O)N[C@@H](CCCCN)C(=O)N[C@@H](CCCCN)C(=O)O [CyLoP-1, CRWRWKCCKK] (H-CRWRWKCCKK-OH; N-terminus and C-terminus assumed)
- gel shift: apparent size of the RNA band with increasing CPP: binding of CyLoP molecules to the RNA
